From US20030207877A1, “Pyridoquinoxaline antivirals” (priority 2001, published 2003)
Values joined by “and” are separate entries in the source; they are usually repeats but may differ in a detail not shown here. Identical values can stand only once.

Columns and labels:
HCMV polymerase = target: T1, HCMV polymerase (Human cytomegalovirus, UniProt P08546); assay: HCMV polymerase assay (scintillation proximity assay), original and modified version; format: biochemical; conditions: SPA; several values per example = repeat determinations, assay version not given; read-out: CMV Polymerase IC50
T1 construct: made in house; host or cells: SF-9 insect cells infected with recombinant baculovirus
T1 sequence (P08546 whole entry): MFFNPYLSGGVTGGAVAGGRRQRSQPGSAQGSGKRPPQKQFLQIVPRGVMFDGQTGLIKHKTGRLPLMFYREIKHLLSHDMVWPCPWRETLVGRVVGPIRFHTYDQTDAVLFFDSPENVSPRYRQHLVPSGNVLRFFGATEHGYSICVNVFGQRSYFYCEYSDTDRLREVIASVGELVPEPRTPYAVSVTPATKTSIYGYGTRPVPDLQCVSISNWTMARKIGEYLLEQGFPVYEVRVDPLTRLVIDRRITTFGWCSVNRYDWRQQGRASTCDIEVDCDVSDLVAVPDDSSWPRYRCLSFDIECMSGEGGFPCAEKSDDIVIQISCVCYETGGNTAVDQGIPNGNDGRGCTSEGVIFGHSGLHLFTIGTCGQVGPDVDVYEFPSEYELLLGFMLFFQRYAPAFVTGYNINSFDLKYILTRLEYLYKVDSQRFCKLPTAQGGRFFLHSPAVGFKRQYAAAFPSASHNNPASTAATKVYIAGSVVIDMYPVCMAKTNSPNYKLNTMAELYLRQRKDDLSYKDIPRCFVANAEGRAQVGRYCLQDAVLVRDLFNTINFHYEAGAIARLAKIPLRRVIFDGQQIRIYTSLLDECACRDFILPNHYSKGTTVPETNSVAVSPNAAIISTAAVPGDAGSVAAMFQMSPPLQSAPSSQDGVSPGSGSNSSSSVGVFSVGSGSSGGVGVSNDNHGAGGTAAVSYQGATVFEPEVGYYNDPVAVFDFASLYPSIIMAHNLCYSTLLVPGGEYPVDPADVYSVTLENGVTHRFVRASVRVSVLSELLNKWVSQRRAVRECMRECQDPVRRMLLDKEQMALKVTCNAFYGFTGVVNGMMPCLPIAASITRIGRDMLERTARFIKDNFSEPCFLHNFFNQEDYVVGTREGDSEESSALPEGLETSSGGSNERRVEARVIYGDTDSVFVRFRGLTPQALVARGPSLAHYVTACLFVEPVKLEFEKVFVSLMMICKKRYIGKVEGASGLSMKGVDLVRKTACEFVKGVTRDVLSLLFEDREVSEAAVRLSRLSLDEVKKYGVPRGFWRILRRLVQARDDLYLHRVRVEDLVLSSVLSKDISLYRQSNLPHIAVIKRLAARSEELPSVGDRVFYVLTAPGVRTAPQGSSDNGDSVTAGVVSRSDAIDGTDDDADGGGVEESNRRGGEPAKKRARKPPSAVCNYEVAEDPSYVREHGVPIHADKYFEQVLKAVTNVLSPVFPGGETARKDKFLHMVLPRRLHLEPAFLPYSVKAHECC
Experimental: The HCMV polymerase assay is performed using a scintillation proximity assay (SPA) as described in several references, such as N.D. Cook, et al., Pharmaceutical Manufacturing International, pages 49-53 (1992); K. Takeuchi, Laboratory Practice, September issue (1992); U.S. Pat. No. 4,568,649 (1986); which are incorporated by reference herein. Reactions are performed in 96-well plates. The assay is conducted in 100 μl volume with 5.4 mM HEPES (pH 7.5), 11.7 MM KCl, 4.5 mM MgCl2, 0.36 mg/ml BSA, and 90 nM ^3H-dTTP. Assays are run with and without CHAPS, (3-[(3-Cholamidopropyl)-dimethylammoniol-1-propane-sulfonate) at a final concentration of 2 mM. HCMV polymerase is diluted in enzyme dilution buffer containing 50% glycerol, 250 mM NaCl, 10 mM HEPES (pH 7.5), 100 μg/ml BSA, and 0.01% sodium azide. The HCMV polymerase, which is expressed in recombinant baculovirus-infected SF-9 cells and purified according to literature procedures, is added at 10% (or 10 μl) of the final reaction volume, i.e., 100 μl. Compounds are diluted in 50% DMSO and 10 μl are added to each well. Control wells contain an equivalent concentration of DMSO. Unless noted otherwise, reactions are initiated via the addition of 6 nM biotinylated poly(dA)-oligo(dT) template/primer to reaction mixtures containing the enzyme, substrate, and compounds of interest. Plates are incubated in a 25° C. or 37° C. H2O bath and terminated via the addition of 40 μl/reaction of 0.5 M EDTA (pH 8) per well. Reactions are terminated within the time-frame during which substrate incorporation is linear and varied depending upon the enzyme and conditions used, i.e., 30 min. for HCMV polymerase. Ten (10) μl of streptavidin-SPA beads (20 mg/ml in PBS/10% glycerol) are added following termination of the reaction. Plates are incubated 10 min. at 37° C., then equilibrated to room temperature, and counted on a Packard Topcount. Linear regressions are performed and IC50's are calculated using computer software.
A modified version of the above HCMV polymerase assay is performed as described above, but with the following changes: Compounds are diluted in 100% DMSO until final dilution into assay buffer. In the previous assay, compounds are diluted in 50% DMSO. 4.5 mM dithiotherotol (DTT) is added to the polymerase buffer.

Alpha Polymerase = target: T2, Alpha Polymerase (Homo sapiens, UniProt P09884); assay: Alpha polymerase inhibition (selectivity); format: biochemical
T2 sequence (P09884 1-1462): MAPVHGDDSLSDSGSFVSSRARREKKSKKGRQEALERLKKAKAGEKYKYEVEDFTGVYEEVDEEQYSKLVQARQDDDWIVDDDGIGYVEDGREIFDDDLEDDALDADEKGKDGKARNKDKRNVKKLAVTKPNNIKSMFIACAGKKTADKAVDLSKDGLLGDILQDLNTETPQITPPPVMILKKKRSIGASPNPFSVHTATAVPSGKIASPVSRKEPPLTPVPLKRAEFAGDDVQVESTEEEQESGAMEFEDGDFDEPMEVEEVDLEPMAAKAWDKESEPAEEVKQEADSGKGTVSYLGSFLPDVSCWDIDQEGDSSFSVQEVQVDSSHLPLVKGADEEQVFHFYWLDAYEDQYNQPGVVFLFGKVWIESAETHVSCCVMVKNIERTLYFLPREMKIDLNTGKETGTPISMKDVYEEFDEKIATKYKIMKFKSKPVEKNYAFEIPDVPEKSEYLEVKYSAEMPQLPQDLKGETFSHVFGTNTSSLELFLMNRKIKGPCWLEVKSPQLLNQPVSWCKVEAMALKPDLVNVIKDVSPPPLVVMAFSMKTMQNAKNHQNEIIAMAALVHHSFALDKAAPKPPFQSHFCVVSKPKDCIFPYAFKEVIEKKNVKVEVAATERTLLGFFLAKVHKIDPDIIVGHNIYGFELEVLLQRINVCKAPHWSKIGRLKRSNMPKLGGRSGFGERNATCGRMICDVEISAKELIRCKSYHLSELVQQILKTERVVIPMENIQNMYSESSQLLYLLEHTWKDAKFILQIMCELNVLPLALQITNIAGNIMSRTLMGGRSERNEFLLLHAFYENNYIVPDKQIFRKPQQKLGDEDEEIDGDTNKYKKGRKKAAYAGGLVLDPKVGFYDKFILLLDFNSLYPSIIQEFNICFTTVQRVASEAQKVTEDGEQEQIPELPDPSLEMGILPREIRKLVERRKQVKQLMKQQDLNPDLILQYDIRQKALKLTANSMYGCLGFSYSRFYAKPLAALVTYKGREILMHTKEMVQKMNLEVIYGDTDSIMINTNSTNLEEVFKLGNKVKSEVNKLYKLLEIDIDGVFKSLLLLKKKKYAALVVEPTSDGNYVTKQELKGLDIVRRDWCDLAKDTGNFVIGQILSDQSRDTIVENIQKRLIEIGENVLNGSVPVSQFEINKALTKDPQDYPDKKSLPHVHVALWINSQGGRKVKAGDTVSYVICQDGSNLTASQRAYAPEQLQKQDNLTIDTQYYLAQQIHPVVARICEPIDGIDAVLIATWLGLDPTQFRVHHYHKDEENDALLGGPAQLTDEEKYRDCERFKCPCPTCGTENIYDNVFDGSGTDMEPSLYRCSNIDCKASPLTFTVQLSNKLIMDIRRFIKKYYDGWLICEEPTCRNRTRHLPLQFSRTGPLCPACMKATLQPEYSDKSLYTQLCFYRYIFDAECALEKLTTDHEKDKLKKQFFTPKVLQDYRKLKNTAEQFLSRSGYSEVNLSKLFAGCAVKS

In the case of `Cc1ccc(C(O)CN(C)Cc2cc3c4c(c2)c(=O)c(C(=O)NCc2ccc(Cl)cc2)cn4CC(=O)N3C)o1` (racemic) [Example 6, rac N-(4-chlorobenzyl)-9-{([2-hydroxy-2-(5-methyl-2-furyl)ethyl](methyl)amino)methyl}-1-methyl-2,7-dioxo-2,3-dihydro-1H,7H-pyrido[1,2,3-de]quinoxaline-6-carboxamide], the IC50 (HCMV polymerase) is reported as 0.12 µM and 0.089 µM, the IC50 (Alpha Polymerase) is reported as over 20 µM and the melting point is reported as 159 to 161 °C.
`CN(Cc1cc2c3c(c1)c(=O)c(C(=O)NCc1ccc(F)cc1)cn3CC(=O)N2C)CC(O)c1cc2ccccc2o1` (racemic) [Example 33, rac 9-{[[2-(1-benzofuran-2-yl)-2-hydroxyethyl](methyl)amino]methyl}-N-(4-fluorobenzyl)-1-methyl-2,7-dioxo-2,3-dihydro-1H,7H-pyrido[1,2,3-de]quinoxaline-6-carboxamide] showed an IC50 (HCMV polymerase) of 0.032 µM, an IC50 (Alpha Polymerase) of 4.39 µM and a melting point of 161 to 163 °C.
With `CN(Cc1cc2c3c(c1)c(=O)c(C(=O)NCc1ccc(Cl)cc1)cn3CC(=O)N2C)C[C@@H](O)c1cccnc1` [Example 13, N-(4-chlorobenzyl)-9-{[[(2S)-2-hydroxy-2-pyridin-3-ylethyl](methyl)amino]methyl}-1-methyl-2,7-dioxo-2,3-dihydro-1H,7H-pyrido[1,2,3-de]quinoxaline-6-carboxamide] the IC50 (HCMV polymerase) was 0.15 µM and 0.076 µM, the IC50 (Alpha Polymerase) was over 20 µM and the melting point was 131 to 135 °C.
For `CN(Cc1cc2c3c(c1)c(=O)c(C(=O)NCc1ccc(Cl)cc1)cn3CC(=O)N2C)C[C@@H](O)c1ccccc1` [Example 12, N-(4-chlorobenzyl)-9-{[[(2S)-2-hydroxy-2-phenylethyl](methyl)amino]methyl}-1-methyl-2,7-dioxo-2,3-dihydro-1H,7H-pyrido[1,2,3-de]quinoxaline-6-carboxamide], the IC50 (Alpha Polymerase) was at least 20 µM.
For `CN(Cc1cc2c3c(c1)c(=O)c(C(=O)NCc1ccc(Cl)cc1)cn3CC(=O)N2C)CC(O)c1ccc2ccccc2n1` (racemic) [Example 16, rac N-(4-chlorobenzyl)-9-{([2-hydroxy-2-quinolin-2-ylethyl](methyl)amino)methyl 1-1-methyl-2,7-dioxo-2,3-dihydro-1H,7H-pyrido[1,2,3-de]quinoxaline-6-carboxamide], the IC50 (HCMV polymerase) was 0.048 µM and 0.036 µM, the IC50 (Alpha Polymerase) was over 20 µM and the melting point was 173 to 177 °C.
In the case of `CN(Cc1cc2c3c(c1)c(=O)c(C(=O)NCc1ccc(Cl)cc1)cn3CC(=O)N2C)CC(O)c1cc2ccccc2o1` (racemic) [Example 3, rac 9-{([2-(1-benzofuran-2-yl)-2-hydroxyethyl](methyl)amino)methyl}-N-(4-chlorobenzyl)-1-methyl-2,7-dioxo-2,3-dihydro-1H,7H-pyrido[1,2,3-de]quinoxaline-6-carboxamide], the IC50 (HCMV polymerase) is reported as 0.0086 µM and 0.0078 µM and 0.0072 µM and the IC50 (Alpha Polymerase) is reported as over 5 µM.
With `CN(Cc1cc2c3c(c1)c(=O)c(C(=O)NCc1ccc(F)cc1)cn3CC(=O)N2C)C[C@@H](O)c1cccs1` [Example 32, N-(4-fluorobenzyl)-9-{[[(2R)-2-hydroxy-2-thien-2-ylethyl](methyl)amino]methyl}-1-methyl-2,7-dioxo-2,3-dihydro-1H,7H-pyrido[1,2,3-de]quinoxaline-6-carboxamide] the IC50 (HCMV polymerase) was 0.58 µM and the melting point was 113 to 115 °C.
Compound `CN(Cc1cc2c3c(c1)c(=O)c(C(=O)NCc1ccc(F)cc1)cn3CC(=O)N2C)C[C@H](O)c1cc2ccccc2o1` [Example 37, 9-{[[(2S)-2-(1-benzofuran-2-yl)-2-hydroxyethyl](methyl)amino]methyl}-N-(4-fluorobenzyl)-1-methyl-2,7-dioxo-2,3-dihydro-1H,7H-pyrido[1,2,3-de]quinoxaline-6-carboxamide] has an IC50 (HCMV polymerase) of 1.19 µM and a melting point of 195 to 197 °C.
Work on `COc1cc(C(O)CN(C)Cc2cc3c4c(c2)c(=O)c(C(=O)NCc2ccc(Cl)cc2)cn4CC(=O)N3C)ccc1O` (racemic) [Example 10, rac N-(4-chlorobenzyl)-9-{([2-hydroxy-2-(4-hydroxy-3-methoxyphenyl)ethyl](methyl)amino)methyl}-1-methyl-2,7-dioxo-2,3-dihydro-1H,7H-pyrido[1,2,3-de]quinoxaline-6-carboxamide] yielded an IC50 (HCMV polymerase) of 0.24 µM and a melting point of 133 to 136 °C.
In the case of `CN(Cc1cc2c3c(c1)c(=O)c(C(=O)NCc1ccc(F)cc1)cn3CC(=O)N2C)C[C@@H](O)c1cc2ccccc2o1` [Example 36, 9-{[[(2R)-2-(1-benzofuran-2-yl)-2-hydroxyethyl](methyl)amino]methyl}-N-(4-fluorobenzyl)-1-methyl-2,7-dioxo-2,3-dihydro-1H,7H-pyrido[1,2,3-de]quinoxaline-6-carboxamide], the IC50 (HCMV polymerase) is reported as under 0.03 µM and the melting point is reported as 94 to 96 °C.
With `CN(Cc1cc2c3c(c1)c(=O)c(C(=O)NCc1ccc(Cl)cc1)cn3CC(=O)N2C)C[C@@H](O)c1nccs1` [Example 22, N-(4-chlorobenzyl)-9-{[[(2R)-2-hydroxy-2-(1,3-thiazol-2-yl)ethyl](methyl)amino]methyl}-1-methyl-2,7-dioxo-2,3-dihydro-1H,7H-pyrido[1,2,3-de]quinoxaline-6-carboxamide] the IC50 (HCMV polymerase) was 0.49 µM and the melting point was 125 to 130 °C.
`CN(Cc1cc2c3c(c1)c(=O)c(C(=O)NCc1ccc(F)cc1)cn3CC(=O)N2C)C[C@@H](O)c1ccccn1` [Example 24, N-(4-fluorobenzyl)-9-{[[(2R)-2-hydroxy-2-pyridin-2-ylethyl](methyl)amino]methyl}-1-methyl-2,7-dioxo-2,3-dihydro-1H,7H-pyrido[1,2,3-de]quinoxaline-6-carboxamide] gave an IC50 (HCMV polymerase) of 1.87 µM and a melting point of 121 to 123 °C.
`CN(Cc1cc2c3c(c1)c(=O)c(C(=O)NCc1ccc(F)cc1)cn3CC(=O)N2C)C[C@@H](O)c1cccnc1` [Example 25] gave an IC50 (HCMV polymerase) of 0.93 µM and a melting point of 108 to 110 °C.
In the case of `COc1cccc(C(O)CN(C)Cc2cc3c4c(c2)c(=O)c(C(=O)NCc2ccc(Cl)cc2)cn4CC(=O)N3C)c1` (racemic) [Example 18, rac N-(4-chlorobenzyl)-9-{([2-hydroxy-2-(3-methoxyphenyl)ethyl](methyl)amino)methyl}-1-methyl-2,7-dioxo-2,3-dihydro-1H,7H-pyrido[1,2,3-de]quinoxaline-6-carboxamide], the IC50 (HCMV polymerase) is reported as 0.18 µM and the melting point is reported as 154 to 156 °C.
